Experimental data from the NIST ThermoML archive (doi:10.1016/j.jct.2017.07.009).

Conditions: 1410 K; Crystal; Calculated from knudsen effusion weight loss

vapor or sublimation pressure: 0.00842 kPa
SMILES: [O-2].[Zn+2] [zinc(II) oxide]
